Measurements reported in publication PMC6232849 (European journal of medicinal chemistry, 2018).
Read-outs that look alike come from different tables or passages of the source.

Tests used:
[1] = test system: Dd2 strain of P. falciparum; assay: parasite growth inhibition, chloroquine-resistant Dd2 strain; assay type: cell-based, Plasmodium falciparum
[2] = test system: NF54 strain of P. falciparum; assay: parasite growth inhibition, chloroquine-sensitive NF54 strain cultured in vitro; assay type: cell-based, Plasmodium falciparum
β-hematin formation = assay type: biochemical; settings: for IC50: read-out: β-hematin inhibition IC50, NP-40 detergent mediated assay
[3] = test system: hemozoin formation in NF54 strain of P. falciparum; assay: cellular heme fractionation assay; assay type: cell-based, Plasmodium falciparum; settings: NF54, 32 h incubation, drug added to early ring stage parasites
[4] = test system: Chinese hamster ovarian, CHO, cells; assay: cytotoxicity against mammalian cells; assay type: cell-based
[5] = read-out: NF54 malaria parasite growth inhibition IC50, chloroquine-sensitive NF54 strain, LDH method of Makler et al

CCN(CC)CCCC(C)Nc1ccnc2cc(Cl)ccc12 (stereo not drawn) [Chloroquine, reference compound]
IC50 ([1]; Plasmodium falciparum, DD2, read-out: IC50 Dd2): 0.15 ± 0.03 µM
IC50 ([2]; Plasmodium falciparum, NF54, read-out: IC50 NF54): 0.016 ± 0.006 µM
IC50 ([2]; Plasmodium falciparum, NF54, read-out: NF54 malaria parasite growth inhibition IC50): 0.016 ± 0.006 µM

O=C(Nc1ccc(-c2nc3ccccc3[nH]2)cc1)c1ccccc1 [Compound 2]
parasite growth inhibition activity (in words) [2]: virtually inactive
β-hematin inhibition activity (in words) (β-hematin formation): virtually inactive

O=C(Nc1ccc(-c2nc3ccccc3[nH]2)cc1)c1cncc(Br)c1 [Compound 5, N-(4-(1H-Benzo[d]imidazole-2-yl)phenyl)-5-bromonicotinamide]
change in freely exchangeable heme in the parasite cell [3]: corresponding increase
change in hemozoin in the parasite cell [3]: large decrease
change in undigested hemoglobin in the parasite cell [3]: much smaller (non-significant) increase
parasite growth inhibition activity (in words) [2]: sub-micromolar

O=C(Nc1ccc(-c2nc3ccccc3[nH]2)cc1)c1cc(Cl)nc(Cl)c1 [Compound 12, N-(4-(1H-Benzo[d]imidazole-2-yl)phenyl)-2,6-dichloroisonicotinamide]
parasite growth inhibition activity (in words) [2]: sub-micromolar

O=C(Nc1ccc(-c2nc3ccccc3n2C(=O)c2ccccc2)cc1)c1cccc(Br)c1 [Compound 26, N-(4-(1H-Benzoyl-benzo[d]imidazole-2-yl)phenyl)-3-bromobenzamide]
IC50 [2, 5]: 2.6 ± 0.6 µM
IC50 (β-hematin formation): 15.6 ± 0.5 µM

N-(4-(1H-Benzo[d]imidazole-2-yl)phenyl)-3-(trifluoromethyl)nicotinamide [Compound 9]
SI (Dd2) (Selectivity index = IC50 (CHO)/IC50 (Dd2)) ([4]; CHO versus Dd2): 32
SI (NF54) (Selectivity index = IC50 (CHO)/IC50 (NF54)) ([4]; CHO versus NF54): 44
IC50 ([4]; read-out: IC50 CHO, cytotoxicity in CHO cells): 35 ± 4 µM
RI (Resistance index = IC50 (Dd2)/IC50 (NF54)) ([1]; Dd2 versus NF54): 1.4
IC50 ([1]; read-out: IC50 Dd2, chloroquine-resistant Dd2 strain): 1.1 ± 0.37 µM
parasite growth inhibition activity (in words) [2]: sub-micromolar
IC50 ([2]; read-out: IC50 NF54, chloroquine-sensitive NF54 strain (Table 2)): 0.8 ± 0.5 µM
IC50 [2, 5]: 0.8 ± 0.5 µM
IC50 (β-hematin formation): 16.6 ± 0.3 µM
